The source of these data is US10239843B2 (CANCER RESEARCH TECHNOLOGY LIMITED, priority 2014, dated 2019).

As usually defined, the IC50 is the midpoint of a concentration-inhibition curve.

The target in one experiment is Human Full Length PARG (Homo sapiens (Human), UniProt Q86W56). The experiment is described as follows: PARG enzyme assay (TR-FRET). Particulars: read-out: PARG Biochem IC50. It is filed as biochemical. (In general: Time-resolved FRET reads energy transfer from a long-lived donor to a nearby acceptor.)
Human Full Length PARG, sequence (Q86W56 whole entry): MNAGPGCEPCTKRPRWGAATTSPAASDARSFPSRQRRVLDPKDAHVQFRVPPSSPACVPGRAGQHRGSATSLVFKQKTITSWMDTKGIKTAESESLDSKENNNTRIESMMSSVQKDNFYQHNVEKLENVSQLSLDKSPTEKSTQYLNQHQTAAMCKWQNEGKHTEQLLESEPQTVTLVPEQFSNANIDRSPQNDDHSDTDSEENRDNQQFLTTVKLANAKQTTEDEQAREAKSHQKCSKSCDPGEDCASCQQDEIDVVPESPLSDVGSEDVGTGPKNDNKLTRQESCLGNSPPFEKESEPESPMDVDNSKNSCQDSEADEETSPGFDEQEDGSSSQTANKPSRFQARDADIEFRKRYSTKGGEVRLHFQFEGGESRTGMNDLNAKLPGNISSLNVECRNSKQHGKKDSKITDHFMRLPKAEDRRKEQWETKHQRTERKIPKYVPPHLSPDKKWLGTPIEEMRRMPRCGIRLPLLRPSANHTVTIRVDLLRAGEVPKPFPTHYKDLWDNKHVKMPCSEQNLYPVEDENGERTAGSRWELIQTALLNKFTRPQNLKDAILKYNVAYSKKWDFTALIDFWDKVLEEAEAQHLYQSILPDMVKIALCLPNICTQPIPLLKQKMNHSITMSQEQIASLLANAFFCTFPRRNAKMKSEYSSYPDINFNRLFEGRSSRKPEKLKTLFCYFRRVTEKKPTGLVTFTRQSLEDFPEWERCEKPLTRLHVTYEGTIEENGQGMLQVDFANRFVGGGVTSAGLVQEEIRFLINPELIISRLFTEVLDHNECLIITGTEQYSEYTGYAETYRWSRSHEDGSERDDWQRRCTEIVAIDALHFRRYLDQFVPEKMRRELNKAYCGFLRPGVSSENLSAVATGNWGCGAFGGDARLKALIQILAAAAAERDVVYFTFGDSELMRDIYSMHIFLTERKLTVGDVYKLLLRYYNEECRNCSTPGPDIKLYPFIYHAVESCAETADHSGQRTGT
Take `CC1(NS(=O)(=O)c2ccc3[nH]c(=O)n(CCc4ccccn4)c(=O)c3c2)CC1` [Example 495, N-(1-Methylcyclopropyl)-2,4-dioxo-3-[2-(2-pyridyl)ethyl]-1H-quinazoline-6-sulfonamide]: the IC50 was 7070 nM. The same measure, in the same setting: under `Cn1c(=O)n(CC(=O)c2ccccc2)c(=O)c2cc(S(=O)(=O)NC3(C)CC3)ccc21` [Example 530, 1-Methyl-N-(1-methylcyclopropyl)-2,4-dioxo-3-phenacyl-quinazoline-6-sulfonamide] stands 1610 nM. On the same count and under the same terms, the same measure for `Cn1nnnc1Cn1c(=O)c2cc(S(=O)(=O)NC3(C)CC3)ccc2n(C)c1=O` [Example 508, 1-Methyl-N-(1-methylcyclopropyl)-3-[(1-methyltetrazol-5-yl)methyl]-2,4-dioxo-quinazoline-6-sulfonamide]: 2770 nM.

With `Cn1c(=O)n(CC(=O)c2ccncc2)c(=O)c2cc(S(=O)(=O)NC3(C)CC3)ccc21` [Example 528, 1-Methyl-N-(1-methylcyclopropyl)-2,4-dioxo-3-[2-oxo-2-(4-pyridyl)ethyl]quinazoline-6-sulfonamide], the IC50 stood at 1740 nM.

Take `Cc1cc(Cn2c(=O)c3cc(S(=O)(=O)NC4(C)CC4)ccc3n(CC(C)(C)F)c2=O)on1` [Example 453, 1-(2-Fluoro-2-methyl-propyl)-N-(1-methylcyclopropyl)-3-[(3-methylisoxazol-5-yl)methyl]-2,4-dioxo-quinazoline-6-sulfonamide]: the IC50 was 348 nM. Still for that read-out and setting: the same measure for `Cn1c(=O)n(Cc2cncs2)c(=O)c2cc(S(=O)(=O)NC3(CF)CC3)ccc21` [Example 534, N-[1-(Fluoromethyl)cyclopropyl]-1-methyl-2,4-dioxo-3-(thiazol-5-ylmethyl)quinazoline-6-sulfonamide]: 578 nM.

The experiment is the same for the next values; noted with them: read-out: PARG Biochem IC50 Geomean.
Take `Cc1cc(Cn2c(=O)n(C3CC3)c(=O)c3cc(S(=O)(=O)NC4(C)CC4)ccc32)n(C)n1` [Example 241]: the IC50 came to 642 nM. On the same count and under the same terms, the same measure for `CNc1nn(Cc2cc(C)no2)c(=O)c2cc(S(=O)(=O)NC3(C)CC3)ccc12` [Example 244, 1-(methylamino)-N-(1-methylcyclopropyl)-3-[(3-methylisoxazol-5-yl)methyl]-4-oxo-phthalazine-6-sulfonamide]: 666 nM; for `Cc1cc(Cn2c(=O)c3cc(S(=O)(=O)NC4CC4)ccc3n(C)c2=O)on1` [Example 260]: 3790 nM; for `Cn1cc(Cn2c(=O)c3cc(S(=O)(=O)NC4(C)CC4)ccc3n(CCN3CCCC3=O)c2=O)cn1` [Example 334]: 4220 nM. Still for that read-out and setting: the same measure for `Cc1cc(Cn2ncc3ccc(S(=O)(=O)NC4(C)CC4)cc3c2=O)on1` [Example 299, N-(1-Methylcyclopropyl)-3-[(3-methylisoxazol-5-yl)methyl]-4-oxo-phthalazine-6-sulfonamide]: 1270 nM; for `Cn1c(=O)c2cc(S(=O)(=O)NC3(C)CC3)ccc2n(CC(=O)Nc2ccccc2)c1=O` [Example 92]: 4130 nM. Regarding `Cc1cc(Cn2c(=O)c3cc(S(=O)(=O)NC4(C)CC4)ccc3n(CCN3CCCC3)c2=O)on1` [Example 248], the IC50 worked out at 521 nM.

For the compound `Cn1c(=O)c(=O)[nH]c2ccc(S(=O)(=O)NC3(C)CC3)cc21` [Example 21, 4-Methyl-N-(1-methylcyclopropyl)-2,3-dioxo-1H-quinoxaline-6-sulfonamide], the IC50 came out at 6930 nM.

As to `Cc1nnsc1Cn1c(=O)c2cc(S(=O)(=O)NC3(C)CC3)ccc2n(C)c1=O` [Example 191], the IC50 was 877 nM.

Regarding `Cn1c(=O)c2cc(S(=O)(=O)NC3(C)CC3)ccc2n(CC2(C)COC2)c1=O` [Example 42], the IC50 is 2450 nM. Same read-out and setting: the same measure for `CN1CCCC(Cn2c(=O)n(Cc3cnn(C)c3)c(=O)c3cc(S(=O)(=O)NC4(C)CC4)ccc32)C1` (stereo not shown) [Example 236]: 6740 nM. Same read-out and setting: under `Cc1ccc(Cn2c(=O)n(C)c(=O)c3cc(S(=O)(=O)NC4(C)CC4)ccc32)cc1` [Example 58] stands 1570 nM; under `COc1ccccc1Cn1c(=O)n(C)c(=O)c2cc(S(=O)(=O)NC3(C)CC3)ccc21` [Example 59], 3240 nM; under `COc1ccc(Cn2cc(Cn3c(=O)c4cc(S(=O)(=O)NC5(C)CC5)ccc4n(C)c3=O)cn2)cc1` [Example 212], 1370 nM. Consider `Cn1nccc1Cn1c(=O)n(C)c(=O)c2cc(S(=O)(=O)NC3(C)CC3)ccc21` [Example 125], for which the IC50 was found to be 1230 nM. Still for that read-out and setting: the same measure for `Cn1c(=O)c2cc(S(=O)(=O)NC3(C)CC3)ccc2n(Cc2cscn2)c1=O` [Example 148]: 855 nM; for `Cc1noc(C)c1Cn1c(=O)n(C)c(=O)c2cc(S(=O)(=O)NC3(C)CC3)ccc21` [Example 121]: 2540 nM; for `Cc1nc(C)c(Cn2c(=O)c3cc(S(=O)(=O)NC4(C)CC4)ccc3n(C)c2=O)o1` [Example 189]: 1330 nM. The same measure, in the same setting: the same measure for `Cn1c(=O)c2cc(S(=O)(=O)NC3(C)CC3)ccc2n(Cc2ccccc2F)c1=O` [Example 65]: 1450 nM; for `Cn1cc(-c2ccc(F)cc2)c2ccc(S(=O)(=O)NC3(C)CC3)cc2c1=O` [Example 255, 4-(4-Fluorophenyl)-2-methyl-N-(1-methylcyclopropyl)-1-oxo-isoquinoline-7-sulfonamide]: 8520 nM. Still for that read-out and setting: under `Cn1c(=O)c2cc(S(=O)(=O)NC3(C)CC3)ccc2n(Cc2ccccc2C(F)(F)F)c1=O` [Example 71] stands 2390 nM. As to `Cn1c(=O)c2cc(S(=O)(=O)NC3(C)CC3)ccc2n(Cc2ccc(C#N)c(F)c2)c1=O` [Example 100], the IC50 turned out to be 1280 nM. The same measure, in the same setting: under `Cc1cc(Cn2cc(Cc3ccc(F)cc3)c3ccc(S(=O)(=O)NC4(C)CC4)cc3c2=O)on1` [Example 322, 4-[(4-Fluorophenyl)methyl]-N-(1-methylcyclopropyl)-2-[(3-methylisoxazol-5-yl)methyl]-1-oxo-isoquinoline-7-sulfonamide] stands 2100 nM. On the same count and under the same terms, the same measure for `CNC(=O)c1nn(Cc2cc(C)no2)c(=O)c2cc(S(=O)(=O)NC3(C)CC3)ccc12` [Example 303]: 800 nM; for `Cc1cc(Cn2cnc3ccc(S(=O)(=O)NC4(C)CC4)cc3c2=O)on1` [Example 210]: 1230 nM; for `Cn1c(=O)c2cc(S(=O)(=O)NC3(C)CC3)ccc2n(Cc2ccncc2)c1=O` [Example 84]: 2370 nM. The same measure, in the same setting: the same measure for `Cn1c(=O)c2cc(S(=O)(=O)NC3(C)CC3)c(F)cc2n(C)c1=O` [Example 224]: 1440 nM; for `CCn1c(=O)c2cc(S(=O)(=O)NC3(C)CC3)ccc2n(CC)c1=O` [Example 4]: 1470 nM.

As to `Cc1nc(C)c(Cn2c(=O)c3cc(S(=O)(=O)NC4(C)CC4)ccc3n(C)c2=O)s1` [Example 142], the IC50 turned out to be 907 nM.

As for `Cc1nc2ccc(S(=O)(=O)NC3(C)CC3)cc2c(=O)[nH]1` [Example 52], the IC50 came out at 6960 nM. Regarding `CCn1c(=O)n(C)c(=O)c2cc(S(=O)(=O)NC3(C)CC3)ccc21` [Example 9], the IC50 stood at 4110 nM. Same read-out and setting: under `Cc1cc(Cn2cc(Cl)c3ccc(S(=O)(=O)NC4(C)CC4)cc3c2=O)on1` [Example 209, 4-Chloro-N-(1-methylcyclopropyl)-2-[(3-methylisoxazol-5-yl)methyl]-1-oxo-isoquinoline-7-sulfonamide] stands 1640 nM; under `Cn1c(=O)c2cc(S(=O)(=O)NC3(C)CC3)cc(F)c2n(C)c1=O` [Example 225], 7490 nM; under `Cc1nc2ccc(S(=O)(=O)NC3(C)CC3)cc2c(=O)n1C` [Example 51], 4160 nM. For the compound `Cn1c(=O)n(CC#N)c(=O)c2cc(S(=O)(=O)NC3(C)CC3)ccc21` [Example 31], the IC50 turned out to be 1140 nM.

The subject of another experiment is PARG in HeLa cell line. The experiment is described as follows: PARG cell assay (PAR chain immunofluorescence after MMS). Format: cell-based. The note with it: HeLa cells, MMS treatment; read-out: PARG Cell IC50. How it is done:
This method is based on the detection of endogenous levels of poly (ADP) ribose chains present in the nucleus of HeLa cell line using indirect immunofluorescence. MMS stimulation increases PAR chains for up to 25 mins. After that point, PARG is active and breaks down the PAR chains, until by one hour after stimulation no PAR chains are detectable. Inhibition of PARG maintains PAR chains.
Briefly, following compound treatment and treatment with the DNA damaging agent methylmethanesulfonate (MMS), the cell monolayer is fixed, then permeabilised and incubated with a mouse monoclonal antibody raised against multimers of poly(ADP) ribose.
At the end of the 1 h dosing period, MMS was added to duplicates at a final concentration of 50 μg/mL, for a further hour.
Media was tipped off and the cells fixed with 50 μL ice-cold 95% MetOH/PBS for 15 mins at −20° C. Following a PBS wash, 50 μL PBS/0.1% Triton was added to the cells for 20 mins. Following another PBS wash, anti-PAR antibody (Calbiochem AM80) was diluted 1:4000 in a buffer (PBS+0.5% FBS+0.05% Tween20) and added to the cells and incubated overnight at 4° C.
Cells were washed three times with PBS and the plate sealed with a light-proof seal.
Take “1-[(2,5-Dimethylpyrazol-3-yl)methyl]-3-[(1-methylpyrazol-4-yl)methyl]-2,4-dioxo-N-[1-(trideuteriomethyl)cyclopropyl]quinazoline-6-sulfonamide [Example 490]”: the IC50 amounted to 70 nM.

The same experiment, now with this note: Homo sapiens; HeLa cells, MMS 50 μg/mL; read-out: PARG Cell IC50 Geomean.
`Cc1cc(Cn2c(=O)c3cc(S(=O)(=O)NC4(C)CC4)ccc3n(CC3CC(C)(C)O3)c2=O)on1` (stereo not shown) [Example 352]: the IC50 is 608 nM. As to `Cn1cc(Cn2c(=O)c3cc(S(=O)(=O)NC4(C)CC4)ccc3n(CC3CN(C(=O)OC(C)(C)C)C3)c2=O)cn1` [Example 365], the IC50 amounted to 218 nM. The same measure, in the same setting: under `Cn1c(=O)c2cc(S(=O)(=O)NC3(C)CC3)ccc2n(CC2CC2(F)F)c1=O` (stereo not shown) [Example 36] stands 591 nM; under `Cn1c(=O)c2cc(S(=O)(=O)NC3(C)CC3)ccc2n(CC2CC2)c1=O` [Example 23], 519 nM.

Still in this experiment, the particulars now being: Homo sapiens; HeLa cells, MMS treatment; read-out: PARG Cell IC50.
As to `Cn1c(=O)n(Cc2ccno2)c(=O)c2cc(S(=O)(=O)NC3(CF)CC3)ccc21` [Example 513, N-[1-(Fluoromethyl)cyclopropyl]-3-(isoxazol-5-ylmethyl)-1-methyl-2,4-dioxo-quinazoline-6-sulfonamide], the IC50 turned out to be 534 nM. The same measure, in the same setting: under `Cn1cc(Cn2c(=O)[nH]c3ccc(S(=O)(=O)NC4(C)CC4)cc3c2=O)cn1` [Example 430, N-(1-Methylcyclopropyl)-3-[(1-methylpyrazol-4-yl)methyl]-2,4-dioxo-1H-quinazoline-6-sulfonamide] stands 1080 nM; under `Cc1cc2cc(S(=O)(=O)NC3(C)CC3)ccc2n(CC2CC2)c1=O` [Example 426, 1-(Cyclopropylmethyl)-3-methyl-N-(1-methylcyclopropyl)-2-oxo-quinoline-6-sulfonamide], 1400 nM.
